Measured values: patent US4406899A, “Cephalosporins” (Bristol-Myers Company, priority 1982, dated 1983)
Values after ≈ are worked out from the molar mass of the structure shown.

What was measured:
Assay type in all cases: cell-based
[1] = test system: Penicillinsensitive S. aureus (5 strains); experiment: MIC, two-fold serial agar dilution, group (G+)-Ia; conditions: Staphylococcus aureus; Mueller-Hinton agar; penicillin-sensitive S. aureus; read-out: Geometric Mean of MIC (G+)-Ia (5 strains)
Protocol: (§1) In the primary evaluation of the compounds of this invention, the Minimum Inhibitory Concentrations (MIC's) of the compounds and two reference compounds (cefotaxime and ceftazidime) were determined by the two-fold serial agar dilution method in Mueller-Hinton agar against 32 strains of test organisms in six groups.

[2] = test system: Penicillinresistant S. aureus (5 strains); experiment: MIC, two-fold serial agar dilution, group (G+)-Ib; conditions: Staphylococcus aureus, read-out: Geometric Mean of MIC (G+)-Ib (5)
Protocol: as §1
(G+)Ib: Penicillinresistant S. aureus (5 strains)

[3] = test system: Cephalothinsensitive E. coli (2 strains), Kl. pneumoniae (1 strain) and Pr. mirabilis (2 strains); experiment: MIC, two-fold serial agar dilution, group (G-)-Ia; conditions: Mueller-Hinton agar; cephalothin-sensitive; read-out: Geometric Mean of MIC (G-)-Ia (5)
Protocol: as §1, with “The preferred compounds of Formula I are those in which R^1 is hydrogen and R^2 is methyl or ethyl. In the most preferred compound, R^2 is methyl. In the” for “In the”
(G-)Ia: Cephalothinsensitive E. coli (2 strains), Kl. pneumoniae (1
strain) and Pr. mirabilis (2 strains)

[4] = test system: Cephalothinresistant E. coli (3 strains) and Kl. pneumoniae (3 strains); experiment: MIC, two-fold serial agar dilution, group (G-)-Ib; conditions: Escherichia coli, read-out: Geometric Mean of MIC (G-)-Ib (6)
Protocol: as §1

[5] = test system: Pr. morganii (1 strain), Ent. cloacae (2 strains) and Ser. marcescens (2 strains); experiment: MIC, two-fold serial agar dilution, group (G-)-II; conditions: Mueller-Hinton agar; read-out: Geometric Mean of MIC (G-)-II (5)
Protocol: as §1

[6] = test system: Ps. aeruginosa (6 strains); experiment: MIC, two-fold serial agar dilution, group (G-)-III; conditions: Pseudomonas aeruginosa; Mueller-Hinton agar; Ps. aeruginosa; read-out: Geometric Mean of MIC (G-)-III (6)
Protocol: as §1

SMILES	MIC [1]	MIC [2]	MIC [3]	MIC [4]	MIC [5]	MIC [6]
CC(C)O/N=C(\C(=O)NC1C(=O)N2C(C(=O)[O-])=C(C[N+]3(C)CCCC3)CSC12)c1csc(N)n1 (stereo not drawn) [Compound Ic, 7-[(Z)-2-(2-Propoxyimino)-2-(2-aminothiazol-4-yl)acetamido]-3-[(1-methyl-1-pyrrolidinium)methyl]-3-cephem-4-carboxylate]	1.4 µg/mL (≈ 2.75 µM)	3.6 µg/mL (≈ 7.08 µM)	0.35 µg/mL (≈ 0.688 µM)	1.3 µg/mL (≈ 2.56 µM)	3.2 µg/mL (≈ 6.29 µM)	11 µg/mL (≈ 21.6 µM)
CCO/N=C(\C(=O)NC1C(=O)N2C(C(=O)[O-])=C(C[N+]3(C)CCCC3)CSC12)c1csc(N)n1 (stereo not drawn) [Ib, 7-[(Z)-2-Ethoxyimino-2-(2-aminothiazol-4-yl)acetamido]-3-[(1-methyl-1-pyrrolidinium)methyl]-3-cephem-4-carboxylate]	1.4 µg/mL (≈ 2.83 µM)	3.1 µg/mL (≈ 6.27 µM)	0.087 µg/mL (≈ 0.176 µM)	0.32 µg/mL (≈ 0.647 µM)	1 µg/mL (≈ 2.02 µM)	5.6 µg/mL (≈ 11.3 µM)
C=CCO/N=C(\C(=O)NC1C(=O)N2C(C(=O)[O-])=C(C[N+]3(C)CCCC3)CSC12)c1csc(N)n1 (stereo not drawn) [Id, 7-[(Z)-2-Allyloxyimino-2-(2-aminothiazol-4-yl)acetamido]-3-[(1-methyl-1-pyrrolidinium)methyl]-3-cephem-4-carboxylate]	1.8 µg/mL (≈ 3.55 µM)	3.6 µg/mL (≈ 7.11 µM)	0.53 µg/mL (≈ 1.05 µM)	1.1 µg/mL (≈ 2.17 µM)	2.4 µg/mL (≈ 4.74 µM)	13 µg/mL (≈ 25.7 µM)
